Data: patent publication US20130108717A1, “COMPOSITIONS FOR THE TREATMENT OF GYNAECOLOGICAL DISORDERS” (INDENA S.P.A., priority 2010, published 2013)
Values after ≈ are worked out from the molar mass of the structure shown.

Legend:
Format in all cases: cell-based
[1] = test system: Methicillin-resistant Staphylococcus aureus; assay: MIC, micro-dilution in culture broth (CLSI M 7-A5), vaginally isolated strains
Trichomonas vaginalis = assay: MIC on Diamond's medium, loss of motility, vaginally isolated strains
Candida albicans = assay: MIC, microdilution in broth (CLSI M27-A), vaginally isolated strains
Gardnerella vaginalis = assay: MIC, broth dilution (CLSI M11-A4), vaginally isolated strains

MIC ([1]; S. aureus Met R 1): >1333 µg/mL
MIC ([1]; S. aureus Met R 2): >1333 µg/mL
MIC ([1]; S. aureus Met R 3): 1333 µg/mL (≈ 2830 µM)
MIC ([1]; S. aureus Met R 4): 1333 µg/mL (≈ 2830 µM)
MIC ([1]; S. aureus Met R 5): >1333 µg/mL
MIC (Trichomonas vaginalis; Trichomonas vaginalis 1): 150 µg/mL (≈ 319 µM)
MIC (Trichomonas vaginalis; Trichomonas vaginalis 2): 150 µg/mL (≈ 319 µM)
MIC (Trichomonas vaginalis; Trichomonas vaginalis 3): 150 µg/mL (≈ 319 µM)
MIC (Trichomonas vaginalis; Trichomonas vaginalis 4): 150 µg/mL (≈ 319 µM)
MIC (Candida albicans; Candida albicans 1): 667 µg/mL (≈ 1420 µM)
MIC (Candida albicans; Candida albicans 2): 667 µg/mL (≈ 1420 µM)
MIC (Candida albicans; Candida albicans 3): 667 µg/mL (≈ 1420 µM)
MIC (Candida albicans; Candida albicans 4): 667 µg/mL (≈ 1420 µM)
MIC (Candida albicans; Candida albicans 5): 333 µg/mL (≈ 707 µM)
MIC (Gardnerella vaginalis; Gardnerella vaginalis 1): 667 µg/mL (≈ 1420 µM)
MIC (Gardnerella vaginalis; Gardnerella vaginalis 2): 667 µg/mL (≈ 1420 µM)
MIC (Gardnerella vaginalis; Gardnerella vaginalis 3): 333 µg/mL (≈ 707 µM)
MIC (Gardnerella vaginalis; Gardnerella vaginalis 4): 167 µg/mL (≈ 355 µM)
MIC (Gardnerella vaginalis; Gardnerella vaginalis 5): 667 µg/mL (≈ 1420 µM)
MIC (Gardnerella vaginalis; Gardnerella vaginalis 6): 667 µg/mL (≈ 1420 µM)
MIC (Gardnerella vaginalis; Gardnerella vaginalis 7): 167 µg/mL (≈ 355 µM)
MIC (Gardnerella vaginalis; Gardnerella vaginalis 8): 333 µg/mL (≈ 707 µM)
MIC (Gardnerella vaginalis; Gardnerella vaginalis 9): 333 µg/mL (≈ 707 µM)
MIC (Gardnerella vaginalis; Gardnerella vaginalis 10): 167 µg/mL (≈ 355 µM)
Structure (SMILES): CC1(C)[C@@H](O)CC[C@]2(C)[C@H]3C(=O)C=C4[C@@H]5C[C@@](C)(C(=O)O)CC[C@]5(C)CC[C@@]4(C)[C@]3(C)CC[C@@H]12 [18-beta-glycyrrhetic acid, 18β-glycyrrhetic acid]
